Results: patent US10772886B2, “CXCR-2 inhibitors for treating crystal arthropathy disorders” (ARDEA BIOSCIENCES, INC., priority 2016, dated 2020)

Tests used:
Assay type in all cases: in vivo
[1] = tested on: rat air pouch model of crystal-induced arthropathy (MSU); assay: Rat air pouch model, Example 6 (Compounds 2, 3 and 4)
Method: (§1) Sodium hydroxide (40 g, Fisher Scientific) was dissolved in de-ionized water (100 mL, dH2O) to provide a 10N solution. Uric acid (16 g, Sigma) was added to de-ionized water (3400 mL) containing sodium hydroxide solution (11.8 mL, 10N) and heated to 60° C. with constant stirring. […] The resulting clear solution was cooled to 4-8° C., resulting in the formation of crystals, which were isolated by filtration, washed three times with de-ionized wa[…]) and dried at 37° C. The dried mono sodium urate crystals were sifted into an air-tight container for storage. […] Methylcellulose (0.4 g, Sigma) was dissolved in de-ionized water (100 mL) to provide a 0.4% solution used as vehicle. […] Test compounds were suspended in vehicle to provide the desired concentrations, and diluted accordingly. […] Male Sprague-Dawley rats (Charles River Laboratories, 160-180 g) were received, individually examined and housed in cages of five rats each. The animals were in apparent good health with no clinical signs of disease or distress. The rats were placed in quarantine with daily inspections, ear notched for identification purposes and shaved at the nape of the neck. The rats were anesthetized (isoflurane), and the nape of the neck was cleansed with 70% isopropanol (Butler Animal Health Supply) followed by povidone-iodine solution (Ricca Chemical Co.). Sterile air (30 mL, 0.2 μm, Millipore) was injected subcutaneously using a 23 G×11⁄2 inch needle fixed to a 30 mL syringe. The rats were returned to routine housing with no adverse reactions observed. The rats were anesthetized (isoflurane), and the nape of the neck was cleansed with 70% isopropanol (Butler Animal Health Supply) followed by povidone-iodine solution (Ricca Chemical Co.). Sterile air (15 mL, 0.11 μm, Millipore) was injected subcutaneously using a 23 G×11⁄2 inch needle fixed to a 20 mL syringe. The rats were returned to routine housing with no adverse reactions observed. The rats were weighed and sorted into treatment groups based on average body weight. As appropriate, the rats were dosed orally with test compound or vehicle (saline alone). […] Thirty minutes after SC injection or two hours after PO dosing, MSU (15 mL) was injected into the air pouch using an 18 G×2 inch needle fitted to a 20 mL syringe. Control group was injected with 15 mL sterile saline (vehicle). The injection sites were closed (collodion, Macron) and the rats returned to their cages with no adverse effects observed. Four hours after MSU/saline injection, the rats were anesthetized and heparinized saline (5 mL, 10 U/mL) was injected into the air pouch. […] An aliquot of the exudate was transferred to green Eppendorf tubes for total white blood cell (WBC) measurement. After allowing the MSU crystals to settle out for ten minutes, an aliquot of the exudate was transferred to heparinized microtainer tubes (Becton Dickinson) for differential white blood cell counts. The remainder of the exudate was centrifuged and an aliquot of the supernatants was dispensed to labeled clear Eppendorf tubes and stored at -80° C. The rats were exsanguinated into pre-chilled serum separator tubes, processed to serum, and 0.5 mL aliquot was stored at -80° C. in labeled Eppendorf tubes. […] [table]

[2] = tested on: rat air pouch model of crystal-induced arthropathy (MSU); assay: Rat air pouch model, Example 7 (Compounds 3 and 4 in combination with colchicine)
Method: as §1

[3] = tested on: rat air pouch model of crystal-induced arthropathy (MSU); assay: Rat air pouch therapeutic model, Example 10 (Compounds 3 and 4 in combination with colchicine)
Method: Sodium hydroxide (40 g, Fisher Scientific) was dissolved in de-ionized water (100 mL, dH2O) to provide a 10N solution. Uric acid (16 g, Sigma) was added to de-ionized water (3400 mL) containing sodium hydroxide solution (11.8 mL, 10N) and heated to 60° C. with constant stirring. […] The resulting clear solution was cooled to 4-8° C., resulting in the formation of crystals, which were isolated by filtration, washed three times with de-ionized wa[…]) and dried at 37° C. The dried mono sodium urate crystals were sifted into an air-tight container for storage. […] Methylcellulose (0.4 g, Sigma) was dissolved in de-ionized water (100 mL) to provide a 0.4% solution used as vehicle. […] Test compounds were suspended in vehicle to provide the desired concentrations, and diluted accordingly. […] The animals were in apparent good health with no clinical signs of disease or distress. The rats were placed in quarantine with daily inspections, ear notched for identification purposes and shaved at the nape of the neck. The rats were anesthetized (isoflurane), and the nape of the neck was cleansed with 70% isopropanol (Butler Animal Health Supply) followed by povidone-iodine solution (Ricca Chemical Co.). Sterile air (30 mL, 0.2 μm, Millipore) was injected subcutaneously using a 23 G×11⁄2 inch needle fixed to a 30 mL syringe. The rats were returned to routine housing with no adverse reactions observed. The rats were anesthetized (isoflurane), and the nape of the neck was cleansed with 70% isopropanol (Butler Animal Health Supply) followed by povidone-iodine solution (Ricca Chemical Co.). Sterile air (15 mL, 0.11 μm, Millipore) was injected subcutaneously using a 23 G×11⁄2 inch needle fixed to a 20 mL syringe. The rats were returned to routine housing with no adverse reactions observed. The rats were weighed and sorted into treatment groups based on average body weight. As appropriate, the rats were dosed orally with test compound or vehicle (saline alone). […] Control group was injected with 15 mL sterile saline (vehicle). The injection sites were closed (collodion, Macron) and the rats returned to their cages with no adverse effects observed. Four hours after MSU/saline injection, the rats were anesthetized and heparinized saline (5 mL, 10 U/mL) was injected into the air pouch. […] An aliquot of the exudate was transferred to green Eppendorf tubes for total white blood cell (WBC) measurement. After allowing the MSU crystals to settle out for ten minutes, an aliquot of the exudate was transferred to heparinized microtainer tubes (Becton Dickinson) for differential white blood cell counts. The remainder of the exudate was centrifuged and an aliquot of the supernatants was dispensed to labeled clear Eppendorf tubes and stored at -80° C. The rats were exsanguinated into pre-chilled serum separator tubes, processed to serum, and 0.5 mL aliquot was stored at -80° C. in labeled Eppendorf tubes. […] 140 rats were used, divided into 14 groups of 10 animals, as follows: [table]

[4] = 3.0 umol/kg PO + Colchicine 0.1 mpk SC, Group 10
[5] = 10 μmol/kg PO + Colchicine 0.3 mg/kg SC, Groups 9, 14
[6] = 1 umol/kg PO + Colchicine 0.1 mpk SC, Group 9

## COc1cc2c(c(OC)c1OC)-c1ccc(OC)c(=O)cc1[C@@H](NC(C)=O)CC2 [Colchicine, COLCHICINE, reference compound]
[1]; 1 mpk SC, Group 4
  Avg Exudate Vol: 5.8 mL
  Avg Total WBC: 17 ×10^6
  Neutrophils: 9.9 ×10^6
[2]; 0.1 mpk SC, Group 3
  Avg Exudate Vol: 12 mL
  Avg Total WBC: 240 ×10^6
  Neutrophils: 205 ×10^6
[2]; 1.0 mpk SC, Group 4
  Avg Exudate Vol: 6 mL
  Avg Total WBC: 22 ×10^6
  Neutrophils: 10.8 ×10^6
[3]; 0.3 mpk SC, Group 3
  Avg Exudate Vol: 11.7 mL
  Avg Tot WBC: 180 ×10^6
  Neutrophils: 71.5 ×10^6
[3]; 0.5 mpk SC, Group 4
  Avg Exudate Vol: 8.9 mL
  Avg Tot WBC: 35 ×10^6
  Neutrophils: 70.7 ×10^6
[3]; 1.0 mpk SC, Group 5
  Avg Exudate Vol: 7.3 mL
  Avg Tot WBC: 9.8 ×10^6
  Neutrophils: 25.9 ×10^6

## CC[C@@H](Nc1c(Nc2cccc(C(=O)N(C)C)c2O)c(=O)c1=O)c1ccc(C)o1 [Compound 2, (R)-2-hydroxy-N,N-dimethyl-3-((2-((1-(5-methylfuran-2-yl)propyl)amino)-3,4-dioxocyclobut-1-en-1-yl)amino)benzamide]
[1]; 3 mpk PO, Group 3
  Avg Exudate Vol: 8.4 mL
  Avg Total WBC: 22 ×10^6
  Neutrophils: 11.8 ×10^6

## C[C@@H](Oc1cc(NS(=O)(=O)N2CCC2)nc(SCc2cccc(F)c2F)n1)[C@@H](O)CO [Compound 3, N-(2-((2,3-difluorobenzyl)thio)-6-(((2R,3S)-3,4-dihydroxybutan-2-yl)oxy)pyrimidin-4-yl)azetidine-1-sulfonamide]
[1]; 0.3 umol/kg PO, Group 5
  Avg Exudate Vol: 10.7 mL
  Avg Total WBC: 180 ×10^6
  Neutrophils: 155 ×10^6
[1]; 3.0 umol/kg PO, Group 6
  Avg Exudate Vol: 10 mL
  Avg Total WBC: 190 ×10^6
  Neutrophils: 121 ×10^6
[1]; 30 umol/kg PO, Groups 7, 9
  Avg Exudate Vol: 7 mL
  Avg Total WBC: 96 ×10^6
  Neutrophils: 44.6 ×10^6
[2]; [4]
  Avg Exudate Vol: 7.8 mL
  Avg Total WBC: 120 ×10^6
  Neutrophils: 159 ×10^6
[2]; 3 umol/kg PO, Group 5
  Avg Exudate Vol: 11.1 mL
  Avg Total WBC: 180 ×10^6
  Neutrophils: 133 ×10^6
[2]; 30 umol/kg PO, Groups 6, 8
  Avg Exudate Vol: 7.4 mL
  Avg Total WBC: 110 ×10^6
  Neutrophils: 65.2 ×10^6
[3]; 3 μmol/kg PO, Group 10
  Avg Exudate Vol: 11.5 mL
  Avg Tot WBC: 120 ×10^6
  Neutrophils: 71.1 ×10^6
[3]; [5]
  Avg Exudate Vol: 9.5 mL
  Avg Tot WBC: 68 ×10^6
  Neutrophils: 72.6 ×10^6
[3]; 10 μmol/kg PO, Groups 6, 11
  Avg Exudate Vol: 10.0 mL
  Avg Tot WBC: 84 ×10^6
  Neutrophils: 69.2 ×10^6
[3]; 30 μmol/kg PO, Groups 7, 12
  Avg Exudate Vol: 8.8 mL
  Avg Tot WBC: 59 ×10^6
  Neutrophils: 30.7 ×10^6
[3]; 100 μmol/kg PO, Groups 8, 13
  Avg Exudate Vol: 6.9 mL
  Avg Tot WBC: 40 ×10^6
  Neutrophils: 35.1 ×10^6

## CC1CN(S(=O)(=O)Nc2cc(O[C@H](C)[C@@H](O)CO)nc(SCc3ccc(F)cc3)n2)C1 [Compound 4, N-(6-(((2R,3S)-3,4-dihydroxybutan-2-yl)oxy)-2-((4-fluorobenzyl)thio)pyrimidin-4-yl)-3-methylazetidine-1-sulfonamide]
[1]; 1.0 umol/kg PO, Group 8
  Avg Exudate Vol: 10 mL
  Avg Total WBC: 270 ×10^6
  Neutrophils: 165 ×10^6
[1]; 30 umol/kg PO, Groups 7, 9
  Avg Exudate Vol: 7 mL
  Avg Total WBC: 140 ×10^6
  Neutrophils: 95.4 ×10^6
[1]; 100 umol/kg PO, Group 10
  Avg Exudate Vol: 6.5 mL
  Avg Total WBC: 76 ×10^6
  Neutrophils: 48.6 ×10^6
[2]; [6]
  Avg Exudate Vol: 10.3 mL
  Avg Total WBC: 210 ×10^6
  Neutrophils: 179 ×10^6
[2]; 1 umol/kg PO, Group 7
  Avg Exudate Vol: 11.8 mL
  Avg Total WBC: 160 ×10^6
  Neutrophils: 121 ×10^6
[2]; 30 umol/kg PO, Groups 6, 8
  Avg Exudate Vol: 8.1 mL
  Avg Total WBC: 100 ×10^6
  Neutrophils: 69.6 ×10^6
[3]; [5]
  Avg Exudate Vol: 7.6 mL
  Avg Tot WBC: 46 ×10^6
  Neutrophils: 61.5 ×10^6
[3]; 10 μmol/kg PO, Groups 6, 11
  Avg Exudate Vol: 11.5 mL
  Avg Tot WBC: 130 ×10^6
  Neutrophils: 68.4 ×10^6
[3]; 30 μmol/kg PO, Groups 7, 12
  Avg Exudate Vol: 8.2 mL
  Avg Tot WBC: 25 ×10^6
  Neutrophils: 60.4 ×10^6
[3]; 100 μmol/kg PO, Groups 8, 13
  Avg Exudate Vol: 7.0 mL
  Avg Tot WBC: 18 ×10^6
  Neutrophils: 26.2 ×10^6
